Measured values taken from patent US9511091B2, “Rare earth metal compounds, methods of making, and methods of using the same” (Spectrum Pharmaceuticals, Inc., priority 2002, dated 2016).

Legend:
[1] = reactivity with respect to phosphate: phosphate removal from pH 3 Na2HPO4/HCl stock solution; type: binding; conditions: for Initial 1st order rate constant k1: calculated from the experimental points for the first minute of the reaction, pH 3; for Fraction of PO4 remaining after 10 min: pH 3 stock solution, La 3 times the stoichiometric amount
Method: A desirable lanthanum carbonate hydroxide is LaCO3OH. […] To determine the reactivity of the lanthanum carbonate hydroxide compound with respect to phosphate, the following procedure was used. A stock solution containing 13.75 g/l of anhydrous Na2HPO4 and 8.5 g/l of HCl is prepared. The stock solution is adjusted to pH 3 by the addition of concentrated HCl. 100 ml of the stock solution is placed in a beaker with a stirring bar. A sample of lanthanum carbonate hydroxide powder is added to the solution. The amount of lanthanum carbonate hydroxide powder is such that the amount of La in suspension is 3 times the stoichiometric amount needed to react completely with the phosphate. Samples of the suspension are taken at intervals, through a filter that separated all solids from the liquid. The liquid sample is analyzed for phosphorous.
(§1) To determine the reactivity of the lanthanum compound with respect to phosphate, the following test was conducted. A stock solution containing 13.75 g/l of anhydrous Na2HPO4 and 8.5 g/l of HCl was prepared. The stock solution was adjusted to pH 3 by the addition of concentrated HCl. An amount of 100 ml of the stock solution was placed in a beaker with a stirring bar. The lanthanum oxychloride from above was added to the solution to form a suspension. The amount of lanthanum oxychloride was such that the amount of La in suspension was 3 times the stoichiometric amount needed to react completely with the phosphate. Samples of the suspension were taken at time intervals, through a filter that separated all solids from the liquid. The liquid sample was analyzed for phosphorous.
as §1, with “Lanthanum carbonate hydroxide powder made as described” for “The lanthanum oxychloride from”, “solution.” for “solution to form a suspension.”, “carbonate hydroxide powder” for “oxychloride”, “intervals” for “intervals,”
(§2) To determine the reactivity of this lanthanum compound with respect to phosphate, the following test was conducted. A stock solution containing 13.75 g/l of anhydrous Na2HPO4 and 8.5 g/l of HCl was prepared. The stock solution was adjusted to pH 3 by the addition of concentrated HCl. An amount of 100 ml of the stock solution was placed in a beaker with a stirring bar. Anhydrous lanthanum oxycarbonate made as described above, was added to the solution. The amount of anhydrous lanthanum oxycarbonate was such that the amount of La in suspension was 3 times the stoichiometric amount needed to react completely with the phosphate. Samples of the suspension were taken at intervals, through a filter that separated all solids from the liquid. The liquid sample was analyzed for phosphorous.
as §2, with “reactivity of the lanthanum compound” for “reactivity of this lanthanum compound”, “stirring bar. La2CO5 powder, made as” for “stirring bar. Anhydrous lanthanum oxycarbonate made as”, “amount of lanthanum oxycarbonate” for “amount of anhydrous lanthanum oxycarbonate”, “taken at intervals through a” for “taken at intervals, through a”

[2] = binding efficiency test, spiked water; conditions: 0.50 g in 30.0 ml spike solution, approximately 1 mg/l of each element, 18 hrs, room temperature
Method: Tests were run to determine the binding efficiency of eight different compounds for twenty-four different elements.
The main objective of the tests was to investigate the efficiency at which the compounds bind arsenic and selenium, in view of their use in removing those elements from drinking water. Twenty-one different anions were also included to explore further possibilities. The tests were performed as follows:
The compounds given in Table 6 were added to water and a spike and were vigorously shaken at room temperature for 18 hrs. The samples were filtered and the filtrate analyzed for a suite of elements including Sb, As, Be, Cd, Ca, Cr, Co, Cu, Fe, Pb, Mg, Mn, Mo, Ni, Se, Tl, Ti, V, Zn, Al, Ba, B, Ag, and P.
2. Add standard solutions of the elements given above to make solutions containing approximately 1 mg/l of each element.
1. Weigh 0.50 g of each compound into its own 50 ml centrifuge tube.
2. Add 30.0 ml of the spike solution to each.
3. Cap tightly and shake vigorously for 18 hrs.
4. Filter solution from each centrifuge tube through 0.2 µm syringe filter. Obtain about 6 ml of filtrate.
5. Dilute filtrates 5:10 with 2% HNO3. Final Matrix is 1% HNO3.

[3] = specific surface area by the BET method; type: physicochemical
Method: For each sample, the surface area measured by the BET method and the fraction of phosphate remaining after 10 min of reaction have been tabulated. […] The rate constant k1 is defined by the following equation: d[PO4]/dt=−k1[PO4]
An aqueous HCl solution having a volume of 334.75 ml and containing LaCl3 (lanthanum chloride) at a concentration of 29.2 wt % as La2O3 was added to a 4 liter beaker and heated to 80° C. with stirring. The initial pH of the LaCl3 solution was 2.2. Two hundred and sixty five ml of an aqueous solution containing 63.59 g of sodium carbonate (Na2CO3) was metered into the heated beaker using a small pump at a steady flow rate for 2 hours. Using a Buchner filtering apparatus fitted with filter paper the filtrate was separated from the white powder product. The filter cake was mixed four times, each with 2 liters of distilled water and filtered to wash away the NaCl formed during the reaction. The washed filter cake was placed into a convection oven set at 105° C. for 2 hours or until a stable weight was observed. […] The surface area of the product was determined by the BET method. The test was repeated 3 times and slightly different surface areas and different reaction rates were obtained as shown in Table 1.

[4] = after 10 min, pH 3, La 3 times the stoichiometric amount

Structure (SMILES)	% Analyte Removed As [2]	% Analyte Removed Be [2]	% Analyte Removed Ca [2]	% Analyte Removed Cd [2]	% Analyte Removed Co [2]	% Analyte Removed Cr [2]	% Analyte Removed Cu [2]	% Analyte Removed Fe [2]	% Analyte Removed Mg [2]	% Analyte Removed Mn [2]	% Analyte Removed Pb [2]	% Analyte Removed Sb [2]	BET surface area [3]	Initial 1st order rate constant k1 [1]	Fraction of PO4 remaining after 10 min [1]	further results
O.O.O.O.O=C([O-])[O-].O=C([O-])[O-].O=C([O-])[O-].[La+3].[La+3] [La2(CO3)3•4H2O, reference compound]	25%	41%	28%	37%	20%	94%	0%	56%	0%	20%	90%	84%				rate of removal of phosphate compared with LaOCl of Example 1 ([1]; FIG. 14, pH 3): faster at the beginning but slower after about 3 minutes; capacity of phosphate removal (PO4 removed/g of La compound) [1, 4]: 45 mg PO4/g; phosphate in solution removed [1, 4]: 38%; % Analyte Removed As ([2]; listed as Commercial lanthanum carbonate): less effective
[La+3].[La+3].[O-2].[O-2].[O-2] [La2O3]	85%	97%	21%	95%	69%	100%	89%	92%	0%	94%	92%	89%				
[O]=[La][Cl] [LaOCl, lanthanum oxychloride]	76%	89%	0%	46%	28%	100%	88%	100%	0%	28%	99%	86%				relationship between the amount of phosphate bound or absorbed and time ([1]; compared with commercial hydrated lanthanum carbonates): closer to linear
O=C([O-])[O-].[La+3].[OH-] [Sample 1, LaCO3OH]													41.3 m^2/g	0.949 min⁻¹	0.130	
O=C([O-])[O-].[La+3].[OH-] [Sample 2, LaCO3OH]													35.9 m^2/g	0.929 min⁻¹	0.153	
O=C([O-])[O-].[La+3].[OH-] [Sample 3, LaCO3OH]													38.8 m^2/g	0.837 min⁻¹	0.171	
O=C([O-])[O-].[La+3].[La+3].[O-2].[O-2] [Sample 4, La2CO5]													25.6 m^2/g	0.545 min⁻¹	0.275	
O=C([O-])[O-].[La+3].[La+3].[O-2].[O-2] [Sample 5, La2O2CO3]													18 m^2/g	0.483 min⁻¹	0.278	
O=C([O-])[O-].[La+3].[La+3].[O-2].[O-2] [Sample 6, La2CO5]													18.8 m^2/g	0.391 min⁻¹	0.308	
O=C([O-])[O-].[La+3].[La+3].[O-2].[O-2] [Sample 7, La2O2CO3]													16.5 m^2/g	0.36 min⁻¹	0.327	
O=C([O-])[O-].[La+3].[La+3].[O-2].[O-2] [Sample 8, La2CO5]													11.9 m^2/g	0.434 min⁻¹	0.483	
O=C([O-])[O-].O=C([O-])[O-].[Ti+4] [Ti(CO3)2, Ti carbonate]	93%	100%	99%	100%	99%	99%	98%	100%	79%	100%	98%	96%				% Analyte Removed As ([2]; listed as compound 5): most efficient
[O]=[Ti]=[O] [TiO2]	93%	8%	0%	4%	0%	6%	11%	49%	0%	1%	97%	96%				% Analyte Removed As ([2]; listed as compound 6): most efficient
